Results taken from patent US20100222396A1 (Novartis AG, priority 2009, published 2010).

Columns and labels:
[1] = biological target: T1, human orexin 1 receptor (hOx1R) (Homo sapiens, UniProt O43613); assay: Radioligand binding assay ([125I]orexin A competition), hOx1R; details: CHO or HEK cell membranes, 1 h room temperature
T1 construct: expressed in transfected cells
T1 sequence (O43613 1-425): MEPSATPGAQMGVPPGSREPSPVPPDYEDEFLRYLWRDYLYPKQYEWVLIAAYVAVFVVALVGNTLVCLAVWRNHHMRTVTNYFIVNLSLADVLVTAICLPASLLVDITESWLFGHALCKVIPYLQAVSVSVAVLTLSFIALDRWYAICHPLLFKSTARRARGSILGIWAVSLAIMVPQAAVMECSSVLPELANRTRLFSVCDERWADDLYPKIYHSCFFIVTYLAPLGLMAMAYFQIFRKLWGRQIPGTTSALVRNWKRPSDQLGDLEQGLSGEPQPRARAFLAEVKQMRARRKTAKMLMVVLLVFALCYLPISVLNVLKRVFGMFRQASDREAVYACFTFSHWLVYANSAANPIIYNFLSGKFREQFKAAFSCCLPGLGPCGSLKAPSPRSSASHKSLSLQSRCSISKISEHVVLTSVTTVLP
Protocol: (§1) For crude cell membrane preparations, cells (CHO, Chinese hamster ovary or HEK, human embryonic kidney) expressing human orexin 1 or human orexin 2 receptors, were washed with HEPES (10 mM, pH 7.5), scraped off the culture plates with the same buffer, and centrifuged at 4° C. for 5 min at 2500×g. The cell pellet was either stored at −80° C. or used directly. Before the experiments, cell membranes were re-suspended in binding assay buffer (10 mM HEPES, 0.5% (w/v) bovine serum albumin, pH 7.5) by homogenisation with a Polytron homogeniser at 50 Hz for 20 s. Cell membranes were also used as made available by commercial providers.
(§2) In initial saturation experiments (to calculate Bmax), cell homogenates (150 μl) were incubated with 25-300 pM of the radioligand ([^125I]orexin A, 50 μl), 8 concentrations in triplicates in the presence or absence Orexin A (1 μM, 50 μl) to define non specific binding. Bound radioactivity was measured, and data were analysed with the program XLFIT or Graphpad Prism. Protein concentration was determined according to the Bradford/BioRad Protein Assay Kit.
(§3) In competition experiments, cell homogenates (150 μl) were incubated in assay buffer (10 mM HEPES, pH 7.5, 0.5% (w/v) bovine serum albumin, 5 mM MgCl2, […], and tween 0.05%) for 1 h at room temperature with about […] of the radioligand ([^125I]orexin A, 2100 Ci/mmole, 50 μl), and with various concentrations of compounds of the invention (50 μl) in triplicates; non-specific binding was determined in the presence of Orexin A (1 μM). Reactions were terminated by vacuum filtration, 3 washes of ice cold wash buffer (Tris-HCl pH 7.4/10 mM, with NaCl 154 mM). Competition data is expressed in Table 1 as Kd [μM].

[2] = biological target: T1, human orexin 1 receptor (hOx1R); assay: Calcium accumulation in cells (FLIPR), antagonism of orexin A, hOx1R; type: cell-based; details: for Kd: cells expressing human orexin 1 receptor, IC50 vs orexin A converted by Cheng and Prusoff correction
Protocol: (§4) Cells expressing human orexin 1 or human orexin 2 receptors, were seeded at 8,000 cells/well in 384 well black-walled clear bottom, poly-D-lysine coated plates. After 24 h, the medium was removed and cells were washed once with phosphate buffered saline and serum-deprived overnight in assay buffer (130 mM NaCl, 5.4 mM KCl, 1.8 mM CaCl2, 0.8 mM MgSO4, 0.9 mM NaH2PO4, 25 mM glucose, 20 mM HEPES, pH 7.4) containing bovine serum albumin (1% w/v).
(§5) On the day of the experiment, the cells seeded in black plates were treated with assay buffer containing the Ca^2+ sensitive fluorescent dye Fluo-4-AM (2 μM), and probenecid (0.1 mM). After 1 h plates were washed twice with, and resuspended in, assay buffer containing probenecid (0.1 mM) using a multi plate washer. The plates were placed into a FLIPR II (Fluorometric Imaging Plate Reader, Molecular Devices, Sunnyvale, Calif., USA) and baseline fluorescence (fluorescence light units, FLU) was measured (5 measurements, 2 S each; laser excitation 488 nm at 0.6-1 W, CCD camera exposure 0.4 s) before addition of buffer alone (basal) or containing test compounds (either compound of formula I alone, agonist alone or agonist in the presence of various concentrations of compounds of formula I). Fluorescence measurements were then continued every 1 S for 120 S followed by every 4 S for 240 S.
(§6) The measurements were typically made in two sequences:
(§7) Compounds of formula I were tested usually in a concentration range from 10^−9 M to 10^−5 M.
(§8) In the second round, performed one hour later (to allow for equilibration), Orexin A was tested either in the absence (calibration curves, Orexin A agonist controls) or in the presence of compounds of formula I to determine antagonism.

[3] = biological target: T2, human orexin 2 receptor (hOx2R) (Homo sapiens, UniProt O43614); assay: Calcium accumulation in cells (FLIPR), antagonism of orexin A, hOx2R; type: cell-based; details: cells expressing human orexin 2 receptor; IC50 vs orexin A converted by Cheng and Prusoff correction
T2 construct: expressed in transfected cells
T2 sequence (O43614 1-444): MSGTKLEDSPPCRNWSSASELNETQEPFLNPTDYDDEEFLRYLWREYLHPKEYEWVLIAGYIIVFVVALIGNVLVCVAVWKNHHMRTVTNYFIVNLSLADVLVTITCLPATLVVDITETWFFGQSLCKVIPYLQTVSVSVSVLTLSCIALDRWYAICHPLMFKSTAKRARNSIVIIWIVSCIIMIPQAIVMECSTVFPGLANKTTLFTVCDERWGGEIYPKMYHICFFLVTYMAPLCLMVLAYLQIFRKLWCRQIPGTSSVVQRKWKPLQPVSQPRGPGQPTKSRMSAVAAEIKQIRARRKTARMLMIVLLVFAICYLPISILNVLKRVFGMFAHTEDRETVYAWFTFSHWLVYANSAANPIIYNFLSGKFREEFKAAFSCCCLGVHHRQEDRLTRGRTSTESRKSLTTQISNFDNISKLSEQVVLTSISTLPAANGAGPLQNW
Protocol: as §4, §5, §6, §7, §8

[4] = biological target: T2, human orexin 2 receptor (hOx2R); assay: Radioligand binding assay ([125I]orexin A competition), hOx2R; details: CHO or HEK cell membranes, 1 h room temperature
Protocol: as §1, §2, §3

SMILES	Kd [1] [nM]	Kd [2] [nM]	Kd [3] [nM]	Kd [4] [nM]	inhibition at 10 µM ([2]; measured at a concentration of 10 μM of compound (cells marked ^a)) [%]
CN(C(=O)c1cccc2[nH]ccc12)[C@H](CCNC(=O)c1nc2ccccc2n1C)Cc1ccccc1 [Example 3, 1-Methyl-1H-benzoimidazole-2-carboxylic acid {(S)-3-[(1H-indole-4-carbonyl)-methyl-amino]-4-phenyl-butyl}-amide]	17	48	3	10	–
CN(C(=O)c1ccc2ccccc2c1)[C@H](CCNC(=O)c1ccccn1)Cc1ccccc1 [Example 21, Pyridine-2-carboxylic acid {(S)-3-[methyl-(naphthalene-2-carbonyl)-amino]-4-phenyl-butyl}-amide]	62	70	174	203	–
CN(C(=O)c1ccc2occc2c1)[C@H](CCNC(=O)c1ccccn1)Cc1ccccc1 [Example 20, Pyridine-2-carboxylic acid {(8)-3-[(benzofuran-5-carbonyl)-methyl-amino]-4-phenyl-butyl}-amide]	163	413	123	168	–
COc1ccc(C(=O)N(C)[C@H](CCNC(=O)c2ccccn2)Cc2ccccc2)cc1OC [Example 9, Pyridine-2-carboxylic acid {(S)-3-[(3,4-dimethoxy-benzoyl)-methyl-amino]-4-phenyl-butyl}-amide]	474	1400	145	46	–
CN(C(=O)c1cccc2c1OCO2)[C@H](CCNC(=O)c1nc2ccccc2n1C)Cc1ccccc1 [Example 19, 1-Methyl-1H-benzoimidazole-2-carboxylic acid {(8)-3-[(benzo[1,3]dioxole-4-carbonyl)-methyl-amino]-4-phenyl-butyl}-amide]	793	1120	114	131	–
CN(C(=O)c1ccc2c(c1)OCO2)[C@@H](CCNC(=O)c1ccccn1)Cc1ccccc1 [Example 47, Pyridine-2-carboxylic acid {(R)-3-[(benzo[1,3]dioxole-5-carbonyl)-methyl-amino]-4-phenyl-butyl}-amide]	12300	6290	–	–	–
COc1cc(Cl)cc(C(=O)N(C)[C@H](CCNC(=O)c2cccn2C)Cc2ccccc2)c1 [Example 106, 1-Methyl-1H-pyrrole-2-carboxylic acid {(S)-3-[(3-chloro-5-methoxy-benzoyl)-methyl-amino]-4-phenyl-butyl}-amide]	50	84	–	3	–
CN(C(=O)c1ccc2c(c1)OCO2)[C@H](CCNC(=O)c1ccccn1)Cc1ccccc1 [Example 1, Pyridine-2-carboxylic acid {(S)-3-[(benzo[1,3]dioxole-5-carbonyl)-methyl-amino]-4-phenyl-butyl}-amide]	179	228	–	–	–
CN(C(=O)c1cccc2c1OCO2)[C@H](CCNC(=O)c1ccccn1)Cc1ccccc1 [Example 30, Pyridine-2-carboxylic acid {(S)-3-[(benzo[1,3]dioxole-4-carbonyl)-methyl-amino]-4-phenyl-butyl}-amide]	1100	2190	–	–	–
CN(C(=O)c1ccc2c(c1)OCO2)[C@@H](Cc1ccccc1)C(C)(C)CNC(=O)c1ccccn1 [Example 113, Pyridine-2-carboxylic acid {(S)-3-[(benzo[1,3]dioxole-5-carbonyl)-methyl-amino]-2,2-dimethyl-4-phenyl-butyl}-amide]	–	–	497	531	24
[2H]C([2H])(c1ccccc1)C(CCNC(=O)c1ccccn1)N(C)C(=O)c1ccc2c(c1)OCO2 (stereo not drawn) [Example 110, Pyridine-2-carboxylic acid {3-[(benzo[1,3]dioxole-5-carbonyl)-methyl-amino]-4,4-dideutero-4-phenyl-butyl}-amide]	1380	1730	–	–	–
CN(C(=O)c1cccc2c1OCO2)[C@@H](CCNC(=O)c1ccccn1)Cc1ccccc1 [Example 61, Pyridine-2-carboxylic acid {(R)-3-[(benzo[1,3]-dioxole-4-carbonyl)-methyl-amino]-4-phenyl-butyl}-amide]	4560	3830	–	–	–
